Test results taken from US20060160894A1, “Benzamides as ppar modulators” (LABORATORIOS S.A.L.V.A.T.,S.A., priority 2003, published 2006).

What was measured:
[1] = biological target: T1, GST-hPPARγ2 (Homo sapiens, UniProt P37231); test: Assay of binding to the PPARγ2 ([3H]BRL-49853 displacement)
T1 construct: the complete cDNA of the […] human PPARs were cloned into pGEX4T2; made in house; host or cells: Escherichia coli BL21 (DE3)
T1 sequence (P37231 1-505): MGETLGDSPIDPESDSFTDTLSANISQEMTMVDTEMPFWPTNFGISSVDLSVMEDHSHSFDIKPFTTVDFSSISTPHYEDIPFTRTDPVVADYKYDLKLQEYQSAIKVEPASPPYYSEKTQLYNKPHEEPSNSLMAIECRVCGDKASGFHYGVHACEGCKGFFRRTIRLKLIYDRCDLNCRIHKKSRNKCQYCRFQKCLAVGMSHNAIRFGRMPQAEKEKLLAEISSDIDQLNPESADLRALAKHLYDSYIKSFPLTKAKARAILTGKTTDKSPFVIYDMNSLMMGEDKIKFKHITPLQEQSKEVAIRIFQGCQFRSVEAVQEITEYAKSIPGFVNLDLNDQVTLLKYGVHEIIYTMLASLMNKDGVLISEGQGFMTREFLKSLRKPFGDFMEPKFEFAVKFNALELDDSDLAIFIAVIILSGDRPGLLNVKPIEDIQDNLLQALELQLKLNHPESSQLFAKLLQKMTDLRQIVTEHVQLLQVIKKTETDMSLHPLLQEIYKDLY
Procedure: Assay of Binding to the PPARγ2
The cDNA encoding for the open reading frame of the hPPARγ2 is amplified by PCR (polymerase chain reaction) and inserted in the plasmid pGEX-4T-2.
The reaction mixture was transferred to a Multiscreen Durapore (Millipore) microplate containing glutathione-Sepharose 4B in every well. The reaction mixture was left to incubate with the resin during 10 min, and then centrifuged at 735 g during 2 min. To dissociate the receptor bound to the resin, reduced glutathione 10 mM is added and incubated during 10 min. The receptor was eluted by centrifugation. Then, 800 μL of scintillation liquid were added to the elution and the contained radioactivity was quantified by liquid scintillation spectroscopy (Microbeta Wallac, Perkin Elmer).

[2] = biological target: T2, PPARγ LBD (Homo sapiens, UniProt P37231); test: LBD-hPPARs transactivation assay (GAL4-LBD luciferase reporter in COS-7 cells); assay type: cell-based; settings: 48 h
T2 construct: expressed in transfected cells; host or cells: COS-7
T2 sequence (P37231 238-503 limits assumed): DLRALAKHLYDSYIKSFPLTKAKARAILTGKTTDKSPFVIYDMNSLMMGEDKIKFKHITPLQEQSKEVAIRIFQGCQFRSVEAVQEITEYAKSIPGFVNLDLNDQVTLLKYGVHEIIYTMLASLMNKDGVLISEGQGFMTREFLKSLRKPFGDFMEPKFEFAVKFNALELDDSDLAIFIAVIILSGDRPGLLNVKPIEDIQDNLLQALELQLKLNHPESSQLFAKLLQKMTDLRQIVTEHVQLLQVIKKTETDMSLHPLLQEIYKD
Excerpt: LBD-hPPARs Transactivation Assay
COS-7 cells were cultivated in 24-well plates and transfected with the pFACMV plasmids that encode the chimeric proteins containing the GAL4 DNA binding domain fused to the PPARγ LBD. The reporter plasmid for the foregoing constructions was pFR-Luc, which contains five repetitions of the GAL4-response element in front of a promoter that controls the transcription of the luciferase gene. Lipofectamine was used as a transfection agent.
The plasmids of the chimeric receptors and the reporter gene were inserted in the cells by transitory transfection in COS-7 cells in culture.

[3] = biological target: T3, GST-hPPARα (Homo sapiens, UniProt Q07869); test: GST-hPPARα binding ([3H]-GW2433 displacement)
T3 construct: the complete cDNA of the […] human PPARs were cloned into pGEX4T2; made in house; host or cells: Escherichia coli BL21 (DE3)
T3 sequence (Q07869 1-468): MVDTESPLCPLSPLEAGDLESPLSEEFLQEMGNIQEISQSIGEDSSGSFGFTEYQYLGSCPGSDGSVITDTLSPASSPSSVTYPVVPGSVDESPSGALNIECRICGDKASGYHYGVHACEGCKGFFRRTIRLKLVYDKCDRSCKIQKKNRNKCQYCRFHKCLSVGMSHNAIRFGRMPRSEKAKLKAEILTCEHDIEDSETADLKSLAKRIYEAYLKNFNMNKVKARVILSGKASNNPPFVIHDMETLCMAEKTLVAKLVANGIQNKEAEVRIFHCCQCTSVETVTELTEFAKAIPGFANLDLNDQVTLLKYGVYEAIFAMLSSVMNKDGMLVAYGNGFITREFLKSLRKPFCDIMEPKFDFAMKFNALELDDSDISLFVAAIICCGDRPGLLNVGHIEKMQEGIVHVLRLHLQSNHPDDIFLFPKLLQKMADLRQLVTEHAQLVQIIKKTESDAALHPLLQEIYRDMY
Excerpt: Cloning of Human PPARα, PPARδ and PPARγ2
The human PPARs cDNAs were amplified through RT-PCR. For hPPARα, RNA was obtained from HepG2 cells treated with linoleic acid; for h PPARδ, RNA was obtained from untreated HepG2 cells; for hPPARγ2, RNA was obtained from human white adipose tissue. Each amplified fragment was cloned into pBluescript (Stratagene®) and sequenced. One clone for each construction was selected and used as template for further subcloning and PCR amplifications.
GST-Fused Protein Construction
To generate these chimeric proteins, the complete cDNA of the […] human PPARs were cloned into pGEX4T2 (Amersham Biosciences). The fragment was obtained from the pBluescript-cDNAs clones digested with endonucleases. To assess the plasmid identity and to ensure the in-phase cloning of the proteins, pGEXs constructions were sequenced. […] Receptor purity was visualized by SDS-PAGE and protein content was determined by Bradford method. […]
Using 96-well culture plates, PPARα or PPARδ (5 μg) were diluted to a total volume of 100 μL with buffer consisting of 50 mM HEPES (pH: 7.0), 50 mM KCl, 5 mM EDTA and 10 mM DTT, in the presence of [3H]-GW2433 (100 and 50 nM for PPARα and PPARδ, respectively). […] Eluted radioactivity was quantitated by liquid scintillation counting in a Microbeta counter (Perkin Elmer).

For `O=C(N[C@@H](Cc1ccc(OCc2ccccc2)cc1)C(=O)O)c1ccc(OCc2ccccc2-c2ccccc2)cc1` [Example 184, (2S)-3-(4-Benzyloxyphenyl)-2-[4-(biphenyl-2-ylmethoxy)benzoylamino]propionic acid], the Ki [1] was < 1000 nM, the “Functional activity PPARγ” value [2] was “Antagonist” and the Ki [3] was > 3000 nM.
